{
  "source": "paper PMC9679998",
  "about": "(ACS Chemical Biology, 2022)",
  "key": {"[1]": {"biological_target": "T1, adenosine A1 receptor (A1AR) (Homo sapiens, UniProt P30542)", "T1 construct": "gene ADORA1", "T1 sequence (P30542 1-326)": "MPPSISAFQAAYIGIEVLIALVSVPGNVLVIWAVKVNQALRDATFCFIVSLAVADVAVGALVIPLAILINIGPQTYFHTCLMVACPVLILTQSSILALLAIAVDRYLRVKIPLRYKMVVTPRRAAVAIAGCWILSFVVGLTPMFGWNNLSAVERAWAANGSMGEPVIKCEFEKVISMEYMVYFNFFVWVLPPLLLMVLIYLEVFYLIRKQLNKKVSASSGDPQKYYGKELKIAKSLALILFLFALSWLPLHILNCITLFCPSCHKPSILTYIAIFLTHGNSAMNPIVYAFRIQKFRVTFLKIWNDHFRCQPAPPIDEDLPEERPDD", "assay": "[3H]DPCPX radioligand displacement on CHO-hA1AR membranes with […] h or […] h preincubation (apparent pKi […] and […]), wash-out, gel labeling, pull-down LC-MS/MS", "format": "binding"}, "[2]": {"biological_target": "T1, adenosine A1 receptor (A1AR)", "assay": "single-point [3H]DPCPX radioligand displacement at […] ([…])"}},
  "data": [
    {"smiles": "C#CCN(CCCSc1nc(N)c(C#N)c(-c2ccc3c(c2)OCO3)c1C#N)C(=O)c1ccc(S(=O)(=O)F)cc1", "note": "[compound 4, LUF7909]", "values": [
      {"measurement": "Ki", "setting": "[1]", "result": 16, "unit": "nM"}
    ]},
    {"smiles": "C#CCNc1nc(SCCCNC(=O)c2ccc(S(=O)(=O)F)cc2)c(C#N)c(-c2ccc3c(c2)OCO3)c1C#N", "note": "[compound 1, 1]", "values": [
      {"measurement": "% displacement at 1 μM", "setting": "[2]", "result": "~ 70"}
    ]}
  ]
}
